# Assay results as given in patent US20120270300A1, “PRODUCTION OF RECOMBINANT FACTOR IX IN A HUMAN HEPATOCYTE CELL LINE” (Universite Claude Bernard Lyon I, priority 2009, published 2012).
# Read-outs that look alike come from different tables or passages of the source.
# Experiments:
# [1] = system: Huh7 cells transiently transfected with pcDNAFIXwt; experiment: Effects of protein degradation inhibitors on the intracellular level of FIXwt (ELISA on lysates); format: cell-based, human; conditions: for Intracellular FIX level (mean ± SE): 6 h treatment, 36 h after transfection, % relative to nontreated cell lysates, NH4Cl 50 mM/l, beta-lactone 10 μM/l, brefeldin A 10 μg/ml
# Protocol: Huh7 cells (1×10^6 cells/dish) were transiently transfected at 80% confluence in 60 mm culture dishes. Thirty-six hours after transfection, the cells were incubated in FBS-free medium containing 10 μM/l of clasto-lactacystin β-lactone (Calbiochem, France Biochem, Meudon, France), 50 mM/l of ammonium chloride, or 10 μg/ml of brefeldin A (Sigma Aldrich). The medium was renewed every 2 hours.
# The cell lysates were harvested 6 h later and prepared in 120 μl of cold lysis buffer. The FIX antigen concentration was quantified on the lysates by means of an ELISA assay. The results are expressed as percentage of values obtained relative to the nontreated control lysates. The comparisons were carried out by application of Fisher's test using the Stat View® software.
# Thirty-six hours after transfection, the inhibitors were added to the culture medium and left for 6 h. The intracellular FIX concentrations were measured after treatment by means of an ELISA assay (the values are expressed as % of FIX relative to the values obtained in the nontreated cell lysates). The results are brought together in table 1 below and correspond to three independent transfections.
# [2] = system: factor IX-deficient plasma; conditions: FIX from HepG2 cells with viral vectors, published by Chen et al.; cited from earlier work
# [3] = system: factor IX-deficient plasma; experiment: Specific coagulation activity, one-step chronometric aPTT test, related back to Benefix (aPTT/ELISA); format: biochemical
# Protocol: The term “biologically active FIX” is intended to mean a factor IX of which the specific coagulation activity is at least 100%. The recombinant FIX secreted into the culture medium of the present invention preferably has a specific coagulation activity of from 150 to 200%, preferably from 170 to 200%. The specific coagulation activity of the factor IX is determined by means of the technique termed chronometric time technique by measuring the partial thromboplastin time (PTT) or activated partial thromboplastin time (aPTT) which is a semi-overall test of blood coagulation which uses a coagulometer. The test used is detailed in the examples. In this test, Benefix® has a specific activity of 100%.
# The specific coagulation activity of the factor IX is determined using the technique termed chronometric time technique by measuring the partial thromboplastin time (PTT) or activated partial thromboplastin time (aPTT) according to K. J. Smith et al., Blood, 72, 1269-1277 (1988), which is a semi-overall one-step blood coagulation test with an MDA II® or else Destiny Max coagulometer (Trinity Biotech, Dublin, Ireland). For this, fifty microliters of sample are diluted to 1/10th in imidazole buffer (Trinity Biotech, Bray, Ireland). […] The coagulation time is measured by means of a coagulometer using an MDA II® or else Destiny Max automated device (Trinity Biotech, Bray, Ireland). […]
# [4] = system: factor IX-deficient plasma; experiment: aPTT coagulation test under the conditions of Chen et al., related to standard plasma values, converted into ng/ml; format: biochemical; conditions: Huh7-CD4 clone
# Protocol: A comparative study with respect to the works of Chen et al., 1997, was carried out. In these experiments, 1×10^6 cells of the Huh7-CD4 clone were seeded into 6-well plates. The following day, the medium was renewed and left in the presence of the producer cells for 24 hours. The FIX concentrations in this medium are determined using the Asserachrom IX:Ag ELISA kit (Diagnostica Stago). The activity of the FIX secreted into this medium is determined in a one-step coagulation test (aPTT) with an MDA II or else Destiny Max coagulometer (Trinity Biotech, Dublin, Ireland) as described above. The activity of the factor IX is determined from standard plasma values (Standard Human Plasma, Siemens Marburg, Germany, calibrated against a WHO—World Health Organization—standard) by means of a log-log curve. […] The specific activity of the FIX resulting from the Huh7-CD4 clone is calculated according to the ratio between the coagulant activity read for the sample, related back to the standard plasma values, and its FIX concentration (aPTT/ELISA).
# Moreover, the specific activity of the FIX produced by the Huh7-CD4 line was determined according to the conditions determined by Chen et al. The ratio between the concentrations measured by the aPTT method (ng/ml) and measured by ELISA (ng/ml) was calculated on the basis of five different assays. […]
# [5] = hemophilia B patients, versus plasma FIX (Mononine); cited from earlier work
# [6] = versus plasma FIX (Mononine); cited from earlier work
compound,measurement,setting,value
"C[C@H]1CCC/C=C/[C@@H]2C[C@H](O)C[C@H]2[C@H](O)/C=C/C(=O)O1 [Brefeldin A, brefeldin A]",Intracellular FIX level (mean ± SE),[1],254.4% +/− 21.4
same,increase of intracellular FIXwt level compared with that without inhibitor,"[1]; after incubation with brefeldin A, p=0.005",370%
"CC(C)[C@H](O)[C@@]12NC(=O)[C@H](C)[C@@H]1OC2=O [Beta-lactone, clasto-lactacystin β-lactone]",Intracellular FIX level (mean ± SE),[1],50.1% +/− 25.8
same,Intracellular FIX level (mean ± SE),[1]; listed as clasto-lactacystin β-lactone,no significant effect
"FIX/GCF9SN-MPSV: FIX produced with a viral vector in the HepG2 hepatocyte cell line by Chen et al., 1997",% specific activity aPTT/ELISA,[2],73.5 +/− 19.7%
same,aPTT,[2],55 ± 15 ng/mL
"FIXwt: recombinant human factor IX expressed in the human hepatocyte cell line Huh7 (transient, or stable clone Huh7-CD4) and secreted into the supernatant",specific activity improved by a factor,"[3]; transiently transfected Huh7 cells, versus Benefix",1.7
same,aPTT,"[4]; 24 hours/10^6 cells, 5 μg/ml of FIX = 100%",740 ± 59 ng/mL
same,% specific activity aPTT/ELISA,"[4]; related to standard plasma, five assays",161 +/− 37%
Benefix: marketed recombinant FIX (Wyeth) synthesized by CHO cells stably transfected with the FIX cDNA,specific activity relative to that of Benefix,"[3]; culture supernatants of transiently transfected Huh7 cells, 36 h after transfection, Benefix = 100%",100%
same,half-life in the blood stream compared with plasma FIX,[5],similar
same,specific activity compared with FIX of plasma origin,[6],equivalent
"FIX/GCNCF9: FIX produced with a viral vector in the HepG2 hepatocyte cell line by Chen et al., 1997",% specific activity aPTT/ELISA,[2],93.7 +/− 11%
same,aPTT,[2],120 ± 14 ng/mL
